{
  "source": "patent US20040147595A1",
  "about": "“Biofilm degrading or sloughing compositions and methods” (priority 2001, published 2004)",
  "key": {"P. aeruginosa PAO-JP2": {"test_system": "P. aeruginosa PAO-JP2", "assay": "Growth of P. aeruginosa PAO-JP2", "type": "cell-based, Pseudomonas aeruginosa", "settings": "data not shown"}, "[1]": {"test_system": "V. fisheri lux quorum sensing system (LuxR)", "assay": "V. fisheri luxR PluxI-gfp(ASV) reporter in PAO-JP2 biofilm", "type": "cell-based, Pseudomonas aeruginosa", "protocol": "P. aeruginosa biofilms. Biofilms were grown at 30° C. in three-dimensional flow cells (Christensen et al., 1999) with individual channel dimensions of 0.3×4×40 mm supplied With ABt minimal medium supplemented with 2% LB. The flow system was assembled and prepared as described by Christensen et al. (1999). The substratum consisted of a microscope glass coverslip (Knittel 24×50 mm st1, Knittel Glaser, Braunschweig, Germany). Cultures for inoculation of the flow channels were prepared in the following way: P. aeruginosa strains were streaked on LB plates with the appropriate antibiotics and incubated for 24 h at 37° C. From each plate a single colony was used for inoculation of 10 ml ABt with 10% LB. The cultures were grown at, 30° C. for 18 h before they were diluted to an OD600 nm of 0.1 in sterile 0.9% NaCl and used for inoculation of the flow channels. Medium flow was kept at a constant rate of 3 mL/h, equivalent to a mean flow velocity of 0.7 mm/s, using a Watson-Marlow 205S peristaltic pump (Watson-Marlow, Falmouth, England). Biofilms were grown for 24 hours before being shifted to media containing AHL and furanone.\nScanning confocal laser microscopy (SCLM). Microscopic inspection and image acquisition were performed an a scanning confocal laser microscope (model TCS4D, Leica Lasertechnik GmbH, Heldelberg, Germany) equipped with a 63×/1.32-0.6 oil objective. The microscope was equipped with a motorized and programmable xy-stage, which was used for monitoring single colonies during the biofilm experiments. At the beginning of each online experiment, the microscope was programmed to track single randomly selected microcolonies; the sensitivity of photo multipliers and the laser intensity were adjusted and thereafter kept constant through out the duration of the experiments. Image scanning was carried out using the 488 nm and 568 nm lines of an Ar/Kr laser for detection of Gfp and Rfp, respectively. Visualization of captured images was performed using the IMARIS software package (Bitplane AG, Zúrich, Switzerland) running on a Silicon Graphics Indigo 2 workstation (Silicon Graphics, Mountain View, Calif. USA).\nRepression of LuxR-activated quorum sensing controlled gene transcription. We speculated that the AHL-antagonstic properties of furanone 56 was specific to the P. aeruginosa las quorum sensing system. To test this, a previously published quorum sensing reporter based on the Vibro fisherf luxR gene and Pluxl-gfp(ASV) (Anderson at al, 2001; Wu et al, 2000) was transferred to PAO-JP2."}, "[2]": {"test_system": "OHHL induced LuxR dependent expression of GFP", "assay": "Quantitative furanone inhibition of the LuxR-PluxI-gfp(ASV) quorum sensor in E. coli MT102 (pJBA89)", "type": "cell-based, Escherichia coli", "settings": "gradient of furanone concentration lowering RFU to 40% versus OHHL concentration (5-100 nM)", "text": "To analyse the AHL antagonist activity of the halogenated furanones we tested the compounds for their ability to inhibit 3oxo-C6-HSL (OHHL) induced LuxR dependent expression of green fluorescent protein (GFP) from a Pgfp(ASV) fusion in the AHL monitor strain E. coli MT102 harbouring pJBA89 (Andersen et al., 2001).\nThe medium used is minimal ABT containing 0.5% glucose and 0.5% Casamino Acids. In growing cultures of the AHL monitor strain E. coli Mt102 (pJBA89) encoding […] and a P-gfp(ASV) fusion, GFP(ASV) is produced immediately upon OHHL addition specifically from the LuxR controlled P-gfp(ASV) fusion gene. The sensitivity is high (responsive to as little as 3 nm OHHL) and due to the instability built into the GFP (ASV) variant there is no background production of green fluoroscence (Andersen et al., 2001). GFP expression from the AHL monitor strain E. coli MT102 (pJBA89) and the control strain MT102 harbouring the lacl^q, Plas-gfp(ASV) IPTG inducible expression system pMH197 was quantified in the following way. Overnight cultures were diluted four fold in fresh medium and incubated for one hour at 30° C. while OHHL and furanone compounds in the required concentrations were mixed in the wells of microtiter dishes. […] When absolute values were required, green fluoroscence was measured on a fluorometer (model RF-1501; Shimadzu, Tokyo, Japan) act at an excitation wavelength of 475 nm and emission detection at 515 nm. To establish a correlation between the colour code of the ARGUS-50 captured images and green fluorescence, both colour and relative fluorescence units (RFU), were determined for a dilution series of an E. coli MT102 (pJBA89) culture which had been incubated with […]. […]\nFrom the second plot, the furanone concentration reducing the relative activity to 40% (ID60) is determined for each OHHL concentration. […]\nTo enable easy comparison of the strength of the furanones, an inhibition index (IIX40) is calculated for each furanone compound. […]"}},
  "note": "Entries after “also recorded” stand apart in the source; their conditions may differ.",
  "data": [
    {"smiles": "O=C1C=C/C(=C/Br)O1", "note": "[furanone 56]", "values": [
      {"measurement": "effect on growth rate", "setting": "P. aeruginosa PAO-JP2", "value": "no effect on growth rate"},
      {"measurement": "green fluorescence of biofilm", "setting": "[1]; 250 nM OHHL and 15 μg/ml furanone 56, 7 hours", "value": "completely disappeared"},
      {"measurement": "green fluorescence of biofilm", "setting": "[1]; 250 nM OHHL and 15 μg/ml furanone 56, six hours", "value": "almost completely disappeared"},
      {"measurement": "green fluorescence of biofilm", "setting": "[1]; 250 nM OHHL and 15 μg/ml furanone 56, two hours", "value": "significantly less green fluorescent; also recorded: decreased significantly"},
      {"measurement": "inhibition index (IIX40)", "setting": "[2]", "value": "0.51 mole of furanone per mmole of"}
    ]}
  ]
}
